Experimental data as given in US5376658A, “5,10-methylene-tetrahydrofolate as a modulator of a chemotherapeutic agent” (priority 1993, dated 1994).

Columns and labels:
[1] = Dimedone trapping of labile 14CH2O group on dilution; assay type: physicochemical; details: 46,664 DPM diluted to 1 ml in H2O, 37° C.
Source text: This requirement for a large excess of formaldehyde to shift the equilibrium between FH4 and CH2 FH4 (Eq. 1) was found by the inventors to
be independent of temperature, pH or the formaldehyde content of charcoal isolation, the presence of air exposure, or the presence of reducing agents. In addition, [11-^14 C]CH2 FH4 prepared as described (Moran et al., Proc. Natl. Acad. Sci. USA 76:1456-60 (1979)), and DEAE-purified (as the concentrated material) of excess ^14 CH2 O, was confirmed to have a labile ^14 CH2 O group by dimedone trapping.

gastrointestinal cancers = details: human, in vivo; cited from earlier work
[2] = tested on: CH2 FH4 and FH4 in breast cancer biopsies; assay: CH2 FH4 and FH4 levels in breast cancer biopsies during L-serine infusion after high-dose (6R,S)-leucovorin; assay type: in vivo, human; design: CH2 FH4 / FH4: unit not given here
Protocol: (§1) As noted previously (see pages 5-6) and mentioned in C. P. Spears, et al., Proc. Am. Soc. Clin. Oncol. 8:69 (1989), the inventors have used pharmacologic intervention to convert intracellular FH4 to CH2 FH4 in patients receiving high-dose reduced folate therapy combined with weekly i.v. bolus 5-FU, 450 mg/sq. m. The method used was administration of i.v. L-serine, 15.0 grams, over 1 hour after the end of overnight high-dose (6R,S)-leucovorin i.v. infusion.
In contrast to the data shown in Tables II and III, the inventors were able to also assay for intratumoral FH4 in addition to CH2 FH4 (this latter is also referred to as "FBC" in those Tables or Folate-Binding Capacity), at time points during this pharmacologic forcing of metabolism of FH4 to CH2 FH4 through the enzyme, serine hydroxymethyltransferase. This enzyme splits a carbon of L-serine to generate formaldehyde in the presence of FH4.
^a Minutes after initiation of 15.0 gram LSerine i.v. 60min infusion,
after end of overnight (6R,S)leucovorin highdose i.v. infusion.
^b Assays performed as described (C.P. Spears et al., Adv. Exp. Med.

breast cancer = assay: Clinical effect in patients receiving 5-FU plus high-dose (6R,S)-leucovorin with L-serine or glycine; assay type: in vivo, human; details: person; L-serine i.v. added to 5-FU/(6R,S)-leucovorin, subsequently glycine 10 grams i.v.
Protocol: as §1, with “Soc.” left out

[3] = cited from earlier work
TS = TS assay in liver tumors of rats bearing transplanted hepatic colonic carcinoma; assay type: in vivo, rat; details: 30 mg/kg each; 24 h after last injection; control 18.96
Source text: (§2) The present inventors have considerable experience with this model, and the antitumor effects of 5-FU shown are typical results, as are the TS and folate assays of control and 5-FU-only-treated rats. […] In fact, the "free TS" levels in the (6R,S)-FH4 -only-treated rats were the lowest of all arms of the study.
(§3) ^b Inoculation of 1 × 10^6 viable colon tumor
(§4) (nitrosoguanidineinduced) cells under the liver capsule on Day 1 (Carlsso
(§5) et al., Anticancer Res. 10:813-16 (1990)). Animals sacrificed on Day 17
(§6) for excision of single liver tumor nodules for pharmacodynamic studies.
(§7) ^d Assays done as described (Spears et al. Adv. Exp. Med. Biol.

[4] = tested on: hepatic colonic carcinoma; assay: Tumor weight in rats bearing transplanted hepatic colonic carcinoma; assay type: in vivo, rat
Source text: as §2
>94% by HPLC). The (6 R,S)FH 4 was weighed, dissolved in normal
saline, and injected daily by tail vein administration using the airfree
Protector device to prevent oxidative destruction of the folate.
as §3, §4, §5, §6

[5] = tested on: 5,10-CH2 FH4 and FH4 levels in liver tumor; assay: Folate assay (5,10-CH2 FH4 and FH4) in liver tumors of rats; assay type: in vivo, rat; details: 30 mg/kg each, 24 h after last injection
Source text: as §2, §3, §4, §5, §6, §7

[6] = patient four, 25 min after initiation of 15.0 g L-serine i.v.
[7] = patient four, 82 min after initiation of 15.0 g L-serine i.v.
[8] = patient two, 22 min after initiation of 15.0 g L-serine i.v.
[9] = patient two, 65 min after initiation of 15.0 g L-serine i.v.
[10] = separate confirmatory experiment, 6 rats/group

Nc1nc2c(c(=O)[nH]1)N1[14CH2]N(c3ccc(C(=O)N[C@@H](CCC(=O)O)C(=O)O)cc3)CC1CN2 (stereo partly shown) [[11-^14 C]-CH2 FH4]
label recoverable by chloroform extraction of dimedone (methone) product [1]: 67.8%

Nc1nc2ncc(CNc3ccc(C(=O)N[C@@H](CCC(=O)O)C(=O)O)cc3)nc2c(=O)[nH]1 [folic acid]
effect of addition to 5-FU therapy (gastrointestinal cancers): increase in toxicity without improved response rates

N[C@@H](CO)C(=O)O [L-serine]
Ratio of FH4/CH2 FH4 ([2]; patient four, 25 min): 2.9 | CH2 FH4 [2, 6]: 0.396 | FH4 [2, 6]: 1.128 | Ratio of FH4/CH2 FH4 ([2]; patient four, 82 min): 3.0 | CH2 FH4 [2, 7]: 0.475 | FH4 [2, 7]: 1.420 | Ratio of FH4/CH2 FH4 ([2]; patient two, 22 min): 3.4 | CH2 FH4 [2, 8]: 0.253 | FH4 [2, 8]: 0.854 | Ratio of FH4/CH2 FH4 ([2]; patient two, 65 min): 2.7 | CH2 FH4 [2, 9]: 0.340 | FH4 [2, 9]: 0.907 | Clinical effect, third patient (breast cancer): rapid acceleration of objective tumor growth and tumor symptoms

NCC(=O)O [glycine]
Clinical effect, third patient (breast cancer): rapid response to 5-FU therapy

Cl.Cl.Nc1nc2c(c(=O)[nH]1)NC(CNc1ccc(C(=O)N[C@@H](CCC(=O)O)C(=O)O)cc1)CN2.O (mixture of isomers) [(6R,S)-FH4, 5,6,7,8Tetrahydropteroyl-L-glutamic acid dihydrochloride monohydrate]
stability of powder ([3]; anaerobic conditions, room temperature): stable even at room temperature, for a year or more | stability under anaerobic conditions ([3]; anaerobic conditions): completely stable | degradation of solution ([3]; in […], exposed to air): 90% | TS (TS): 7.13 p mole/g | Tumor weight ([4]; Day 17 after transplantation, 30 mg/kg each, average of 3 rats, control 5.84): 10.43 g | tumor growth, % of control tumor weight [4, 10]: 171% | tumor size (weight) [4, 10]: 6.0 ± 1.1 g | 5,10-CH2 FH4 ([5]; control 0.69): 2.93 nmol/g | FH4 ([5]; control 1.18): 2.31 nmol/g
